Measured values from US12102685B2, “Immodulator peptides covalently modified with small molecules” (priority 2020, dated 2024).
Marks after values point to notes of the source that are not given here. Peptide text beside a SMILES is read from it.

Experiments:
[1] = FITC-PI(4)P1 binding to plate-bound peptide with calcium (x9A)
Protocol: Immodulator peptides IM1, IM3 and IM5 (400 ng/well) in PBS were bound to streptavidin-coated 96-well plates at room temperature for 60 minutes, in the presence or absence of 500 uM calcium chloride. Each well also received 200 ng cold PPI plus 10 ng FITC-labeled PI(4,5)P2 or PI(4)P1. The tables below show the relative fluorescence (with/without calcium background) expressed as a percentage of the highest binder, FITC-PI(4,5)P2+cold PI(3,5)P2, which was 2,496 fluorescence units. Background binding without calcium was, in all cases, 200-300 fluorescence units.

[2] = FITC-PI(4,5)P2 binding at pH5.2 with metals and cold PPI (x9D)
Protocol: To a streptavidin-coated 96-well plate, 400 ng peptide IM3 or IM5 were bound per well. Each well received 100 uL of sodium acetate buffer pH5.2 containing 500 uM EDTA, Calcium Chloride, Zinc Chloride or Ferric Chloride. Each well additionally contained 50 ng FITC-PI(4,5)P2 plus 2 ug of either cold PI(3,4)P2, PI(4,5)P2, PI(3,5)P2 or buffer. All assays were done in sextuplicate. After incubation at room temperature for 60 mins, wells were washed and counted in a fluorometer set at FITC excitation/emmission wavelengths.

[3] = molecular target: T1, DNA-binding domain (DBD) of RXR-alpha (Homo sapiens, UniProt P19793); assay: Binding to RXRa-DBD with or without ferric iron (x3B)
T1 construct: purchased Abcam, Cambridge, MA
T1 sequence (P19793 111-228): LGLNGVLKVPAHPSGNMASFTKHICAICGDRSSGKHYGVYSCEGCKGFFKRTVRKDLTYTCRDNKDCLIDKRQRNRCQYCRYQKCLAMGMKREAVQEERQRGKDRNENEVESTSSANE
Protocol: Experiment x3B. Binding of immodulator peptides to DNA-binding domain (DBD) of RXR-alpha, with or without ferric iron. 100 ng/well recombinant RXRa-DBD (Abcam, Cambridge, MA) was adsorbed to wells of a 96-well plate for 60 minutes at RT, then blocked with 200 uL 1% BSA in PBS buffer overnight. Plate was washed and 800 ng/well Streptavidin-Alexa 488 conjugate (SA488)-labelled IM peptide was added, with or without ferric chloride (5 uM) or 5-fold excess RXRa-DBD. The plate was incubated for 2 hours at room temperature, washed and counted in a standard fluorometer (excitation/emission 485/525 nm).

[4] = Competition binding assay to metal-charged NTA-coated plates (x2B b); settings: PBS on calcium = 100
Protocol: NTA-metal-affinity fluorescence assay was performed using 96-well NTA-metal-coated plates readily available from commercial sources such as Qiagen (Germantown, MD). NTA was charged with ferrous or ferric iron, zinc, copper, calcium, vanadium, ruthenium, cobalt, titanium, manganese or other metals. 400 ng of FITC-labeled immodulator peptide (or biotinylated immodulator peptide complexed to Alexa-488-labeled streptavidin) in PBS buffer was added per plate. After incubation at room temperature for 60 minutes, excess peptide was washed off and peptide was detected by measuring fluorescence (excitation 490 nm, emmission 525 nm) in a fluorometer. • (a) Using FITC-labeled IM3 peptide (1 ug/well) in the fluorescent binding assay: • EDTA-treated control: 2,251±1,186 • Ferrous iron: 170,441±11,264 (p<0.001)* • Copper: 13,644±5566 (p<0.05)* • Calcium: 48,822±11,990 (p<0.01)* • *p values are relative to EDTA-treated control • (b) Competition binding assay to ferrous iron, calcium, copper and zinc-charged NTA-coated plates using FITC-labeled IM3 peptide (0.5 uM) and 8× (4 uM) unlabelled competitor peptides IM3N1, IM3N2 (*all comparisons to PBS control are p<0.01); # fluorescent value of binding to […] was set at 100.

[5] = molecular target: T2, full-length huNur77 (Homo sapiens, UniProt P22736); assay: Binding to full-length huNur77 (x3C); settings: 333 ng/well labelled peptide
T2 construct: purchased Abcam, Cambridge, MA
T2 sequence (P22736 whole entry): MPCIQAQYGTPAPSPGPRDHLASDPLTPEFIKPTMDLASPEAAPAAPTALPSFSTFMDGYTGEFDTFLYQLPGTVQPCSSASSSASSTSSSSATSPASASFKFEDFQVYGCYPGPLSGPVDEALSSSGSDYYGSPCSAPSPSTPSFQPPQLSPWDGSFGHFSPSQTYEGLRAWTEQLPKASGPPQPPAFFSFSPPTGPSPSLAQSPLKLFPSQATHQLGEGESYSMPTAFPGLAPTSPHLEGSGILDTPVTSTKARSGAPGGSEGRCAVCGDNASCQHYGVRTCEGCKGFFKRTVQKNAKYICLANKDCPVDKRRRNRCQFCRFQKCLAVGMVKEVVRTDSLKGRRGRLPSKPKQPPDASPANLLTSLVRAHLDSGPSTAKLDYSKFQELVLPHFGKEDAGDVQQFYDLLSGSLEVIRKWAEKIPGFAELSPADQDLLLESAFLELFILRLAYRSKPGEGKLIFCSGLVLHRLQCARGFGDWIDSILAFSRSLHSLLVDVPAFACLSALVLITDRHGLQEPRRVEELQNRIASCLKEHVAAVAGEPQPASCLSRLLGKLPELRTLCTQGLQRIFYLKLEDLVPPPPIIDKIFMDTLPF
Protocol: 400 ng/well recombinant Nur77 (Abcam, Cambridge, MA) was adsorbed to wells of a 96-well plate for 90 minutes at RT, then blocked with 200 uL 1% BSA in PBS buffer overnight. Plate was washed and 333 ng/well Streptavidin-Alexa 488 conjugate (SA488)-labelled IM3, IM4 or no peptide was added. The plate was incubated for 60 min at room temperature, washed and counted in a standard fluorometer (excitation/emission 485/525 nm). Background (buffer alone) was subtracted.

Q: What does the source list for CC[C@H](C)[C@H](NC(=O)CNC(=O)[C@H](CCCNC(=N)N)NC(=O)[C@H](CCCCN)NC(=O)[C@H](CCCNC(=N)N)NC(=O)CNC(=O)[C@H](CCCNC(=N)N)NC(=O)[C@H](CO)NC(=O)[C@@H]1CCCN1C(=O)[C@H](CCCCN)NC(=O)[C@H](CS)NC(=O)[C@H](CCC(N)=O)NC(=O)[C@H](CCCCN)NC(=O)[C@H](CCCNC(=N)N)NC(=O)[C@H](CCCCN)NC(=O)[C@H](Cc1ccc(O)cc1)NC(=O)[C@H](Cc1ccccc1)NC(=O)CNC(=O)[C@H](CCCCN)NC(=O)[C@@H](N)CCCNC(=N)N)C(=O)N[C@@H](CS)C(=O)N[C@@H](Cc1c[nH]c2ccccc12)C(=O)O [IM5] (H-RKGFYKRKQCKPSRGRKRGICW-OH; N-terminus and C-terminus assumed)?
A: relative fluorescence, FITC-PI(4)P1 bound ([1]; cold PPI: 3,4,5-P3): 1.2 percentage of the highest binder; relative fluorescence, FITC-PI(4)P1 bound ([1]; cold PPI: 3,4-P2): 1.7 percentage of the highest binder; relative fluorescence, FITC-PI(4)P1 bound ([1]; cold PPI: 3,5-P2): 1.3 percentage of the highest binder; relative fluorescence, FITC-PI(4)P1 bound ([1]; cold PPI: 3-P1): 0.9 percentage of the highest binder; relative fluorescence, FITC-PI(4)P1 bound ([1]; cold PPI: 4,5-P2): 1.8 percentage of the highest binder; relative fluorescence, FITC-PI(4)P1 bound ([1]; cold PPI: 4-P1): 0.8 percentage of the highest binder; relative fluorescence, FITC-PI(4)P1 bound ([1]; cold PPI: 5-P1): 0.4 percentage of the highest binder; relative fluorescence, FITC-PI(4)P1 bound ([1]; cold PPI: None): 2.1 percentage of the highest binder; fluorescence, FITC-PI(4,5)P2 bound ([2]; Buffer, Calcium): 234 ± 34; fluorescence, FITC-PI(4,5)P2 bound ([2]; Buffer, EDTA): 88 ± 23; fluorescence, FITC-PI(4,5)P2 bound ([2]; Buffer, Ferric Iron): 1,111 ± 167; fluorescence, FITC-PI(4,5)P2 bound ([2]; Buffer, Zinc): 236 ± 55; fluorescence, FITC-PI(4,5)P2 bound ([2]; Cold PI(3,4)P2, Calcium): 205 ± 50; fluorescence, FITC-PI(4,5)P2 bound ([2]; Cold PI(3,4)P2, EDTA): 150 ± 81; fluorescence, FITC-PI(4,5)P2 bound ([2]; Cold PI(3,4)P2, Ferric Iron): 2,150 ± 420; fluorescence, FITC-PI(4,5)P2 bound ([2]; Cold PI(3,4)P2, Zinc): 151 ± 51; fluorescence, FITC-PI(4,5)P2 bound ([2]; Cold PI(3,5)P2, Calcium): 489 ± 146; fluorescence, FITC-PI(4,5)P2 bound ([2]; Cold PI(3,5)P2, EDTA): 205 ± 71; fluorescence, FITC-PI(4,5)P2 bound ([2]; Cold PI(3,5)P2, Ferric Iron): 2,026 ± 176; fluorescence, FITC-PI(4,5)P2 bound ([2]; Cold PI(3,5)P2, Zinc): 353 ± 29; fluorescence, FITC-PI(4,5)P2 bound ([2]; Cold PI(4,5)P2, Calcium): 163 ± 80; fluorescence, FITC-PI(4,5)P2 bound ([2]; Cold PI(4,5)P2, EDTA): 81 ± 95; fluorescence, FITC-PI(4,5)P2 bound ([2]; Cold PI(4,5)P2, Ferric Iron): 1,447 ± 304; fluorescence, FITC-PI(4,5)P2 bound ([2]; Cold PI(4,5)P2, Zinc): 104 ± 21; fluorescence ([3]; 100 ng/well RXRa-DBD, no FeCl3, no excess RXRa-DBD): 228.0 ± 44.9; fluorescence ([3]; FeCl3 5 uM, 5X excess RXRa-DBD): 303.0 ± 68.3; fluorescence ([3]; FeCl3 5 uM, no excess RXRa-DBD): 552.7 ± 86.8^

Q: With “RGVTEDYLRLETLVQKVVSKGFYKKKQCRPSKGRKRGFCW [IM3N1]” as the molecule, how does the “FITC-IM3 fluorescence with competitor” value ([4]; Calcium, 0.5 uM FITC-IM3, 8x (4 uM) unlabelled competitor) read?
A: 14.6 ± 1.4*

Q: And the “FITC-IM3 fluorescence with competitor” value ([4]; Copper, 8x (4 uM) unlabelled competitor)?
A: 9.2 ± 1.5*

Q: And the “FITC-IM3 fluorescence with competitor” value ([4]; Ferrous iron, 8x (4 uM) unlabelled competitor)?
A: 20.4 ± 1.0*

Q: What about the “FITC-IM3 fluorescence with competitor” value ([4]; Zinc, 8x (4 uM) unlabelled competitor) of the same molecule?
A: 15.7 ± 1.3*

Q: With CSCC[C@H](NC(=O)[C@H](CO)NC(=O)[C@@H](NC(=O)[C@H](CCC(=O)O)NC(=O)[C@H](CS)NC(=O)[C@H](CCC(N)=O)NC(=O)[C@H](CCCNC(=N)N)NC(=O)[C@H](CO)NC(=O)[C@H](Cc1c[nH]cn1)NC(=O)[C@H](Cc1ccc(O)cc1)NC(=O)[C@H](Cc1ccccc1)NC(=O)CNC(=O)[C@H](CC(N)=O)NC(=O)[C@@H](N)CCCCN)[C@@H](C)O)C(=O)N[C@@H](CC(=O)O)C(=O)NCC(=O)N[C@@H](CCC(=O)O)C(=O)N[C@@H](C)C(=O)NCC(=O)N[C@@H](CC(C)C)C(=O)N[C@@H](CS)C(=O)N[C@@H](Cc1c[nH]c2ccccc12)C(=O)O [IM1] (H-KNGFYHSRQCETSMDGEAGLCW-OH; N-terminus and C-terminus assumed) as the molecule, how does the “relative fluorescence, FITC-PI(4)P1 bound” value ([1]; cold PPI: 3,4,5-P3) read?
A: 0.1 percentage of the highest binder

Q: And the “relative fluorescence, FITC-PI(4)P1 bound” value ([1]; cold PPI: 3,4-P2)?
A: 2.6 percentage of the highest binder

Q: What about the “relative fluorescence, FITC-PI(4)P1 bound” value ([1]; cold PPI: 3,5-P2) of the same molecule?
A: 4.3 percentage of the highest binder

Q: And the “relative fluorescence, FITC-PI(4)P1 bound” value ([1]; cold PPI: 3-P1)?
A: 3.1 percentage of the highest binder

Q: And the “relative fluorescence, FITC-PI(4)P1 bound” value ([1]; cold PPI: 4,5-P2)?
A: 0.8 percentage of the highest binder

Q: What about the “relative fluorescence, FITC-PI(4)P1 bound” value ([1]; cold PPI: 4-P1) of the same molecule?
A: 2.7 percentage of the highest binder

Q: What about the “relative fluorescence, FITC-PI(4)P1 bound” value ([1]; cold PPI: 5-P1) of the same molecule?
A: 0.5 percentage of the highest binder

Q: And the “relative fluorescence, FITC-PI(4)P1 bound” value ([1]; cold PPI: None)?
A: 1.6 percentage of the highest binder

Q: With CC(C)C[C@H](NC(=O)[C@H](C)NC(=O)[C@@H]1CCCN1C(=O)[C@H](Cc1c[nH]cn1)NC(=O)[C@H](CS)NC(=O)[C@H](CCC(N)=O)NC(=O)[C@H](CCCCN)NC(=O)[C@@H]1CCCN1C(=O)[C@H](Cc1c[nH]cn1)NC(=O)[C@H](Cc1ccccc1)NC(=O)[C@H](CC(N)=O)NC(=O)CNC(=O)[C@H](CC(N)=O)NC(=O)[C@@H](N)CCCNC(=N)N)C(=O)N[C@@H](CC(=O)O)C(=O)NCC(=O)N[C@@H](CCC(N)=O)C(=O)N[C@@H](CCCNC(=N)N)C(=O)NCC(=O)N[C@@H](CCCCN)C(=O)N[C@@H](CS)C(=O)N[C@@H](Cc1c[nH]c2ccccc12)C(=O)O [IM4] (H-RNGNFHPKQCHPALDGQRGKCW-OH; N-terminus and C-terminus assumed) as the molecule, how does the fluorescence ([5]; Nur77 400 ng/well) read?
A: 70 ± 48

Q: And the fluorescence ([5]; no Nur77 adsorbed)?
A: 112 ± 24
